The record followed here is patent US10695337B2, “Piperidin-4-yl azetidine derivatives as JAK1 inhibitors” (Incyte Corporation, priority 2010, dated 2020).

This assay addresses human JAK1 (a.a. 837-1142). Description: In vitro JAK kinase assay (HTRF, phosphorylation of a biotinylated peptide), JAK1. It is filed as biochemical. To be noted: measured at 1 mM ATP; JAK2 IC50 / JAK1 IC50. Here is the method: Compounds herein were tested for inhibitory activity of JAK targets according to the following in vitro assay described in Park et al., Analytical Biochemistry 1999, 269, 94-104. The catalytic domains of human JAK1 (a.a. 837-1142), Jak2 (a.a. 828-1132) and Jak3 (a.a. 781-1124) with an N-terminal His tag were expressed using baculovirus in insect cells and purified. The catalytic activity of JAK1, JAK2 or JAK3 was assayed by measuring the phosphorylation of a biotinylated peptide. The phosphorylated peptide was detected by homogenous time resolved fluorescence (HTRF). […] Reactions were carried out at room temperature for 1 hr and then stopped with 20 μL 45 mM EDTA, 300 nM SA-APC, 6 nM Eu-Py20 in assay buffer (Perkin Elmer, Boston, Mass.). Binding to the Europium labeled antibody took place for 40 minutes and HTRF signal was measured on a Fusion plate reader (Perkin Elmer, Boston, Mass.).
In the case of `CC1CC(N2CC(CC#N)(n3cc(-c4ncnc5[nH]ccc45)cn3)C2)CCN1Cc1c(F)cccc1Cl` (single isomer, unassigned) [Example 244, {1-[1-(2-chloro-6-fluorobenzyl)-2-methylpiperidin-4-yl]-3-[4-(7H-pyrrolo[2,3-d]pyrimidin-4-yl)-1H-pyrazol-1-yl]azetidin-3-yl}acetonitrile], the “IC50 Ratio JAK2/JAK1” value is on record as 1.8. Regarding `N#CCC1(n2cc(-c3ncnc4[nH]ccc34)cn2)CN(C2CCN(C(=O)c3cc(F)cc(F)c3)CC2)C1` [Example 3, {1-[1-(3,5-difluorobenzoyl)piperidin-4-yl]-3-[4-(7H-pyrrolo[2,3-d]pyrimidin-4-yl)-1H-pyrazol-1-yl]azetidin-3-yl}acetonitrile], the “IC50 Ratio JAK2/JAK1” value was 11.0. With `COc1ccc(C(=O)N2CCC(N3CC(CC#N)(n4cc(-c5ncnc6[nH]ccc56)cn4)C3)CC2)cc1F` [Example 5, {1-[1-(3-fluoro-4-methoxybenzoyl)piperidin-4-yl]-3-[4-(7H-pyrrolo[2,3-d]pyrimidin-4-yl)-1H-pyrazol-1-yl]azetidin-3-yl}acetonitrile] the figure was 12.0; with `N#CCC1(n2cc(-c3ncnc4[nH]ccc34)cn2)CN(C2CCN(C(=O)C3CCCCC3)CC2)C1` [Example 8, {1-[1-(cyclohexylcarbonyl)piperidin-4-yl]-3-[4-(7H-pyrrolo[2,3-d]pyrimidin-4-yl)-1H-pyrazol-1-yl]azetidin-3-yl}acetonitrile], 11.0. With `N#CCC1(n2cc(-c3ncnc4[nH]ccc34)cn2)CN(C2CCN(C(=O)c3ccccc3)CC2)C1` [Example 9, {1-(1-benzoylpiperidin-4-yl)-3-[4-(7H-pyrrolo[2,3-d]pyrimidin-4-yl)-1H-pyrazol-1-yl]azetidin-3-yl}acetonitrile] the figure was 3.2. For the molecule `N#CCC1(n2cc(-c3ncnc4[nH]ccc34)cn2)CN(C2CCN(C(=O)c3ccccc3C#N)CC2)C1` [Example 10, 2-[(4-{3-(cyanomethyl)-3-[4-(7H-pyrrolo[2,3-d]pyrimidin-4-yl)-1H-pyrazol-1-yl]azetidin-1-yl}piperidin-1-yl)carbonyl]benzonitrile], the “IC50 Ratio JAK2/JAK1” value came out at 4.4.

As for `N#CCC1(n2cc(-c3ncnc4[nH]ccc34)cn2)CN(C2CCN(C(=O)c3cccc(C#N)c3)CC2)C1` [Example 11, 3-[(4-{3-(cyanomethyl)-3-[4-(7H-pyrrolo[2,3-d]pyrimidin-4-yl)-1H-pyrazol-1-yl]azetidin-1-yl}piperidin-1-yl)carbonyl]benzonitrile], the “IC50 Ratio JAK2/JAK1” value is reported as 7.2.

Regarding `N#CCC1(n2cc(-c3ncnc4[nH]ccc34)cn2)CN(C2CCN(C(=O)c3ccc(C#N)cc3)CC2)C1` [Example 12, 4-[(4-{3-(cyanomethyl)-3-[4-(7H-pyrrolo[2,3-d]pyrimidin-4-yl)-1H-pyrazol-1-yl]azetidin-1-yl}piperidin-1-yl)carbonyl]benzonitrile], the “IC50 Ratio JAK2/JAK1” value was found to be 5.2. With `N#CCC1(n2cc(-c3ncnc4[nH]ccc34)cn2)CN(C2CCN(C(=O)c3cccc(Cl)n3)CC2)C1` [Example 13, {1-{1-[(6-chloropyridin-2-yl)carbonyl]piperidin-4-yl}-3-[4-(7H-pyrrolo[2,3-d]pyrimidin-4-yl)-1H-pyrazol-1-yl]azetidin-3-yl}acetonitrile] the figure was 5.3; with `N#CCC1(n2cc(-c3ncnc4[nH]ccc34)cn2)CN(C2CCN(C(=O)c3cnccn3)CC2)C1` [Example 14, {1-[1-(pyrazin-2-lcarbonyl)piperidin-4-yl]-3-[4-(7H-pyrrolo[2,3-d]pyrimidin-4-yl)-1H-pyrazol-1-yl]azetidin-3-l}acetonitrile], 3.2; with `N#CCC1(n2cc(-c3ncnc4[nH]ccc34)cn2)CN(C2CCN(C(=O)c3ccsc3)CC2)C1` [Example 15, {3-[4-(7H-pyrrolo[2,3-d]pyrimidin-4-yl)-1H-pyrazol-1-yl]-1-[1-(3-thienylcarbonyl)piperidin-4-yl]azetidin-3-yl}acetonitrile], 5.3.

As to `N#CCC1(n2cc(-c3ncnc4[nH]ccc34)cn2)CN(C2CCN(C(=O)c3ncco3)CC2)C1` [Example 16, {1-[1-(1,3-oxazol-2-ylcarbonyl)piperidin-4-yl]-3-[4-(7H-pyrrolo[2,3-d]pyrimidin-4-yl)-1H-pyrazol-1-yl]azetidin-3-yl}acetonitrile], the “IC50 Ratio JAK2/JAK1” value was determined as 2.5. With `N#CCC1(n2cc(-c3ncnc4[nH]ccc34)cn2)CN(C2CCN(C(=O)c3cccc(Br)c3)CC2)C1` [Example 20, {1-[1-(3-bromobenzoyl)piperidin-4-yl]-3-[4-(7H-pyrrolo[2,3-d]pyrimidin-4-yl)-1H-pyrazol-1-yl]azetidin-3-yl}acetonitrile] the figure was 4.2. On to `N#CCC1(n2cc(-c3ncnc4[nH]ccc34)cn2)CN(C2CCN(C(=O)c3cccc(OC(F)(F)F)c3)CC2)C1` [Example 21, (3-[4-(7H-pyrrolo[2,3-d]pyrimidin-4-yl)-1H-pyrazol-1-yl]-1-{1-[3-(trifluoromethoxy)benzoyl]piperidin-4-yl}azetidin-3-yl)acetonitrile], for which the “IC50 Ratio JAK2/JAK1” value was determined as 3.2.

Consider `N#CCC1(n2cc(-c3ncnc4[nH]ccc34)cn2)CN(C2CCN(C(=O)c3cccc(C(F)(F)F)c3)CC2)C1` [Example 22, (3-[4-(7H-pyrrolo[2,3-d]pyrimidin-4-yl)-1H-pyrazol-1-yl]-1-{1-[3-(trifluoromethyl)benzoyl]piperidin-4-yl}azetidin-3-yl)acetonitrile], for which the “IC50 Ratio JAK2/JAK1” value was 3.2.

In the case of `N#CCC1(n2cc(-c3ncnc4[nH]ccc34)cn2)CN(C2CCN(C(=O)c3cc(F)cc(C(F)(F)F)c3)CC2)C1` [Example 23, {1-{1-[3-fluoro-5-(trifluoromethyl)benzoyl]piperidin-4-yl}-3-[4-(7H-pyrrolo[2,3-d]pyrimidin-4-yl)-1H-pyrazol-1-yl]azetidin-3-yl}acetonitrile], the “IC50 Ratio JAK2/JAK1” value was 6.7. Consider `N#CCC1(n2cc(-c3ncnc4[nH]ccc34)cn2)CN(C2CCN(C(=O)c3cc(Cl)cc(Cl)c3)CC2)C1` [Example 24, {1-[1-(3,5-dichlorobenzoyl)piperidin-4-yl]-3-[4-(7H-pyrrolo[2,3-d]pyrimidin-4-yl)-1H-pyrazol-1-yl]azetidin-3-yl}acetonitrile], for which the “IC50 Ratio JAK2/JAK1” value came out at 6.6. With `N#CCC1(n2cc(-c3ncnc4[nH]ccc34)cn2)CN(C2CCN(C(=O)c3cccc(F)c3)CC2)C1` [Example 25, {1-[1-(3-fluorobenzoyl)piperidin-4-yl]-3-[4-(7H-pyrrolo[2,3-d]pyrimidin-4-yl)-1H-pyrazol-1-yl]azetidin-3-yl}acetonitrile] the figure was 5.8; with `COc1cc(C(=O)N2CCC(N3CC(CC#N)(n4cc(-c5ncnc6[nH]ccc56)cn4)C3)CC2)ccc1F` [Example 26, {1-[1-(4-fluoro-3-methoxybenzoyl)piperidin-4-yl]-3-[4-(7H-pyrrolo[2,3-d]pyrimidin-4-yl)-1H-pyrazol-1-yl]azetidin-3-yl}acetonitrile], 3.3. For the molecule `COc1ccc(F)c(C(=O)N2CCC(N3CC(CC#N)(n4cc(-c5ncnc6[nH]ccc56)cn4)C3)CC2)c1` [Example 27, {1-[1-(2-fluoro-5-methoxybenzoyl)piperidin-4-yl]-3-[4-(7H-pyrrolo[2,3-d]pyrimidin-4-yl)-1H-pyrazol-1-yl]azetidin-3-yl}acetonitrile], the “IC50 Ratio JAK2/JAK1” value worked out at 5.1. For the molecule `N#CCC1(n2cc(-c3ncnc4[nH]ccc34)cn2)CN(C2CCN(C(=O)c3cc(F)cc(Cl)c3)CC2)C1` [Example 28, {1-[1-(3-chloro-5-fluorobenzoyl)piperidin-4-yl]-3-[4-(7H-pyrrolo[2,3-d]pyrimidin-4-yl)-1H-pyrazol-1-yl]azetidin-3-yl}acetonitrile], the “IC50 Ratio JAK2/JAK1” value stood at 8.5.

For `N#CCC1(n2cc(-c3ncnc4[nH]ccc34)cn2)CN(C2CCN(C(=O)c3cc(F)cc(Br)c3)CC2)C1` [Example 29, {1-[1-(3-bromo-5-fluorobenzoyl)piperidin-4-yl]-3-[4-(7H-pyrrolo[2,3-d]pyrimidin-4-yl)-1H-pyrazol-1-yl]azetidin-3-yl}acetonitrile], the “IC50 Ratio JAK2/JAK1” value turned out to be 7.2. In the case of `N#CCC1(n2cc(-c3ncnc4[nH]ccc34)cn2)CN(C2CCN(C(=O)c3cc(Cl)sc3Cl)CC2)C1` [Example 30, {1-{1-[(2,5-dichloro-3-thienyl)carbonyl]piperidin-4-yl}-3-[4-(7H-pyrrolo[2,3-d]pyrimidin-4-yl)-1H-pyrazol-1-yl]azetidin-3-yl}acetonitrile] it was 2.8; in that of `COc1cccc(C(=O)N2CCC(N3CC(CC#N)(n4cc(-c5ncnc6[nH]ccc56)cn4)C3)CC2)c1` [Example 31, {1-[1-(3-methoxybenzoyl)piperidin-4-yl]-3-[4-(7H-pyrrolo[2,3-d]pyrimidin-4-yl)-1H-pyrazol-1-yl]azetidin-3-yl}acetonitrile], 1.9. Consider `COc1c(F)c(F)cc(C(=O)N2CCC(N3CC(CC#N)(n4cc(-c5ncnc6[nH]ccc56)cn4)C3)CC2)c1F` [Example 32, {3-[4-(7H-pyrrolo[2,3-d]pyrimidin-4-yl)-1H-pyrazol-1-yl]-1-[1-(2,4,5-trifluoro-3-methoxybenzoyl)piperidin-4-yl]azetidin-3-yl}acetonitrile], for which the “IC50 Ratio JAK2/JAK1” value turned out to be 4.4.

Take `COc1cc(OC)cc(C(=O)N2CCC(N3CC(CC#N)(n4cc(-c5ncnc6[nH]ccc56)cn4)C3)CC2)c1` [Example 33, {1-[1-(3,5-dimethoxybenzoyl)piperidin-4-yl]-3-[4-(7H-pyrrolo[2,3-d]pyrimidin-4-yl)-1H-pyrazol-1-yl]azetidin-3-yl}acetonitrile]: the “IC50 Ratio JAK2/JAK1” value is 0.5.
